Experimental data: ChEMBL document CHEMBL1129998, “Pharmacological options in the treatment of benign prostatic hyperplasia” (J Med Chem, 1997)
Values belong to the compound of their own block, whether it stands above or below them.

What was measured:
[1] = Inhibitory concentration on human 5-alpha reductase isozyme
[2] = target: T1, Steroid 5-alpha-reductase (Rattus norvegicus, UniProt P24008+P31214); assay: Inhibition of rat 5-alpha reductase isozyme.; format: protein assay
T1 sequence (P24008 whole entry): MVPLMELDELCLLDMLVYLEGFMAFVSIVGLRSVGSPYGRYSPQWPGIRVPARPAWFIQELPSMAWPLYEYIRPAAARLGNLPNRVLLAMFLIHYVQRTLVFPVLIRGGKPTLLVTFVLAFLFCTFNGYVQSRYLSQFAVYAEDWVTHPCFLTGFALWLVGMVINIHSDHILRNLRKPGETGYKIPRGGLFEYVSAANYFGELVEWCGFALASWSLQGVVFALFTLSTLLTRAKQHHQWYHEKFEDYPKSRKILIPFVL
T1 sequence (P31214 whole entry): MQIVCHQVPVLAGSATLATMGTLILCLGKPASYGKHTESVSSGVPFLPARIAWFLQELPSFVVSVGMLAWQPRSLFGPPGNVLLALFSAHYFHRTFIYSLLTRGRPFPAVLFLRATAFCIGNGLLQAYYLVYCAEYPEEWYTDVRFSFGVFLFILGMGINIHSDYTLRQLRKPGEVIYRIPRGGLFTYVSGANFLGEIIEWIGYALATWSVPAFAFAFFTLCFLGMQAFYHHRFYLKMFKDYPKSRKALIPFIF

[3] = target: T2, Adrenergic receptor alpha-1 (Homo sapiens, UniProt P35348+P25100+P35368); assay: pA2 for Alpha-1 adrenergic receptor from human prostate.; format: tissue-based, Prostate gland
T2 sequence (P35348 whole entry): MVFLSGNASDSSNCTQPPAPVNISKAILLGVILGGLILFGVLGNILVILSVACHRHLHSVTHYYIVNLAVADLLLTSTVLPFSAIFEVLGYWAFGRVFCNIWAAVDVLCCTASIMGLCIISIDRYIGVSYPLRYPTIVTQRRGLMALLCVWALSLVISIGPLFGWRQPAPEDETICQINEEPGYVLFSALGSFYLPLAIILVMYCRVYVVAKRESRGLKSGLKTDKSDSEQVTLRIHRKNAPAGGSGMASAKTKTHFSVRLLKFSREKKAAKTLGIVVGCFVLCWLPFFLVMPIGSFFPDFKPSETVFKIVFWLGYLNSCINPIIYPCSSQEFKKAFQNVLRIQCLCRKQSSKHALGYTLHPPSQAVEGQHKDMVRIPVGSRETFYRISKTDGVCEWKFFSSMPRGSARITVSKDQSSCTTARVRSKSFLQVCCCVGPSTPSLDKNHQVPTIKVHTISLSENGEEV
T2 sequence (P25100 whole entry): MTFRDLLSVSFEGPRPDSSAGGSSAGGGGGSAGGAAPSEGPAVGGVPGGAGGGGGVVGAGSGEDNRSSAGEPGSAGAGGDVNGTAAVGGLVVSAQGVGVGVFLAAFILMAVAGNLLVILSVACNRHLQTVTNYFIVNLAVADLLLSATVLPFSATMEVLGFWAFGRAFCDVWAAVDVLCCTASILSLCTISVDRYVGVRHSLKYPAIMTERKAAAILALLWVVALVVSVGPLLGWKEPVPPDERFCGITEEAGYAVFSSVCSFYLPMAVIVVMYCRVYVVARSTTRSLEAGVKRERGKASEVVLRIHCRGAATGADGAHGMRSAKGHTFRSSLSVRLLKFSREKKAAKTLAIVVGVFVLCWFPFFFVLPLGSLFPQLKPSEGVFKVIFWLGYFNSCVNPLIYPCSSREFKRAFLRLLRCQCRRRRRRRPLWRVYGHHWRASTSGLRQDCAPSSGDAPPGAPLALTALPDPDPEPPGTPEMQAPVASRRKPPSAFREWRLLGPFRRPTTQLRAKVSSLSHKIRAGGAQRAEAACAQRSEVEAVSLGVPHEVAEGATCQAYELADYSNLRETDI
T2 sequence (P35368 whole entry): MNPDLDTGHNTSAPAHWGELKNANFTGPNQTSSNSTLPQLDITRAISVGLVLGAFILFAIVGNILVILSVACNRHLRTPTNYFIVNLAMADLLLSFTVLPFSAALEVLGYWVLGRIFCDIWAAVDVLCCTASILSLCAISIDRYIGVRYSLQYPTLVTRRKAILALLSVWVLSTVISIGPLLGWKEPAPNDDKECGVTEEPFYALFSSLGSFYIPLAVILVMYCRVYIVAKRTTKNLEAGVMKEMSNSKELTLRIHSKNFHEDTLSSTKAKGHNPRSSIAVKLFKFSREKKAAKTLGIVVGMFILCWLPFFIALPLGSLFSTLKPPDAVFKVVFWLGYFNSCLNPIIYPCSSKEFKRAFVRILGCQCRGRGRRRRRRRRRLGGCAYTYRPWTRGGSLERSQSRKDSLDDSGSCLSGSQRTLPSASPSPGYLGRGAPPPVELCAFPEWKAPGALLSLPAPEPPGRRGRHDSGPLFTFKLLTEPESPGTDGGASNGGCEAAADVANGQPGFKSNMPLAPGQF

[4] = target: T3, Alpha-1D adrenergic receptor (Homo sapiens, UniProt P25100); assay: Binding affinity was tested on human Alpha-1D adrenergic receptor
T3 sequence (P25100 whole entry): T2 sequence (P25100 whole entry)

[5] = target: T4, Alpha-1B adrenergic receptor (Homo sapiens, UniProt P35368); assay: Binding affinity was tested on human Alpha-1B adrenergic receptor
T4 sequence (P35368 whole entry): T2 sequence (P35368 whole entry)

[6] = target: T5, Alpha-1A adrenergic receptor (Homo sapiens, UniProt P35348); assay: Binding affinity was tested on human Alpha-1A adrenergic receptor
T5 sequence (P35348 whole entry): T2 sequence (P35348 whole entry)

[7] = target: T6, 3-oxo-5-alpha-steroid 4-dehydrogenase 2 (Homo sapiens, UniProt P31213); assay: Inhibitory concentration on human prostatic 5-alpha reductase 2 isozyme
T6 sequence (P31213 whole entry): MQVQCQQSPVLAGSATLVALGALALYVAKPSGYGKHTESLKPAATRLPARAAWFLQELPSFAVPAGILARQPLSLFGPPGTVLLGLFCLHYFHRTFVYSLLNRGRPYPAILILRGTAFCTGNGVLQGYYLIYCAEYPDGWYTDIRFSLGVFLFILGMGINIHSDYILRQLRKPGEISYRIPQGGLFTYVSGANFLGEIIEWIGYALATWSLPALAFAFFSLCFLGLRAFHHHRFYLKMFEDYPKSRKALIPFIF

[8] = Apparent binding affinity on human 5-alpha reductase isozyme
[9] = target: T1, Steroid 5-alpha-reductase; assay: Apparent binding affinity on rat 5-alpha reductase isozyme; format: protein assay
[10] = target: T7, Alpha-1A adrenergic receptor (Rattus norvegicus, UniProt P43140); assay: Binding affinity was tested on CEC-pretreated rat hippocampus Alpha-1A adrenergic receptor; format: tissue-based
T7 sequence (P43140 whole entry): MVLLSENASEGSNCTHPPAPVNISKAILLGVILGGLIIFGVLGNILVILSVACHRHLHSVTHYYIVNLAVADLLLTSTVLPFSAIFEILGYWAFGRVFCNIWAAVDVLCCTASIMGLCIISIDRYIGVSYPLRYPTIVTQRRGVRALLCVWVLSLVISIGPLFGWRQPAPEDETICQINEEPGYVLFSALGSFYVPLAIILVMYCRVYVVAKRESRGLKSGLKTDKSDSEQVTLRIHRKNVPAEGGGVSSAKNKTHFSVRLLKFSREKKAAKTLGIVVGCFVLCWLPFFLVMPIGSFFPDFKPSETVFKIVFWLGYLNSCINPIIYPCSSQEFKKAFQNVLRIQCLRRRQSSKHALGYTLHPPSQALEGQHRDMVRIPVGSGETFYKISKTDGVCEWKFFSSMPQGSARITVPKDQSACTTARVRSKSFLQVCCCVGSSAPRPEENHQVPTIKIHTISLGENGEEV

[11] = target: T8, Alpha-1B adrenergic receptor (Rattus norvegicus, UniProt P15823); assay: Binding affinity was tested on CEC-pretreated rat liver Alpha-1B adrenergic receptor
T8 sequence (P15823 whole entry): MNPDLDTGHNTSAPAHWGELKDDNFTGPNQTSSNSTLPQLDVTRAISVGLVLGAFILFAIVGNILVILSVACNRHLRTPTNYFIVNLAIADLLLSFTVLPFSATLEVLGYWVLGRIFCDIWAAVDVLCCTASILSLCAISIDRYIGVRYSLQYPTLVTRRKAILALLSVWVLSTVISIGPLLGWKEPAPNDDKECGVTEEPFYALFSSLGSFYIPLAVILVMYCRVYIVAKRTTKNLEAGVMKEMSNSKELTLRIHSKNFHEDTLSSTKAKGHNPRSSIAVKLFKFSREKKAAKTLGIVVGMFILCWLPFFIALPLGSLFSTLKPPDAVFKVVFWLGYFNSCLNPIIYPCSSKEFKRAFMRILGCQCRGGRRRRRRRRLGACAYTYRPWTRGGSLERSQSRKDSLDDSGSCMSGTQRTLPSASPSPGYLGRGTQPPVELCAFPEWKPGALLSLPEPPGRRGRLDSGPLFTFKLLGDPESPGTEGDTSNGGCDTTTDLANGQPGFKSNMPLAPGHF

Canis familiaris [12] = assay: 50% reduction in intraurethral pressure (IUP) in response to hypogastric nerve stimulation or agonist (phenylephrine or norepinephrine) administration in anesthetized dog; format: functional; conditions: Canis lupus familiaris; read-out: ID50 (the source's name)
Canis familiaris [13] = assay: 50% reduction in agonist induced pressor response in anesthetized dog; format: functional; conditions: Canis lupus familiaris; read-out: ID50 (the source's name)

- IC50 [1]: 26 nM
- IC50 [2]: 35 nM
SMILES: CC(C)N(C(=O)[C@H]1CC[C@H]2[C@@H]3CC[C@H]4C(F)=C(C(=O)O)CC[C@]4(C)[C@H]3CC[C@]12C)C(C)C

- pA2 [3]: 8.2
- Ki [4]: 10 nM
- Ki [5]: 39.8 nM
- Ki [6]: 0.631 nM
SMILES: COc1ccccc1N1CCN(CCCNc2c(C)c(=O)n(C)c(=O)n2C)CC1

- IC50 [7]: 1550 nM
SMILES: CC(C)NC(=O)N(C(=O)[C@H]1CCC2C3CCC4NC(=O)C=C[C@]4(C)C3CC[C@@]21C)C(C)C (stereo partly drawn)

- Ki [8]: 7 nM
- Ki [9]: 160 nM
SMILES: CC(C)N(C(=O)[C@H]1CCC2C3CC=C4C=C([PH](=O)O)CC[C@]4(C)C3CC[C@@]21C)C(C)C (stereo partly drawn)

- IC50 [1]: 18 nM
- IC50 [2]: 50 nM
SMILES: CC(C)(C)NC(=O)[C@H]1CC[C@H]2[C@@H]3CC=C4C=C(C(=O)O)CC[C@]4(C)[C@H]3CC[C@]12C [EPRISTERIDE]

- pA2 [3]: 8.7
- Ki [4]: 158 nM
- Ki [5]: 39.8 nM
- Ki [6]: 3.98 nM
SMILES: O=C(NC1CCN(CCc2c[nH]c3ccccc23)CC1)c1ccccc1 [INDORAMIN]

- IC50 [7]: 1220 nM
SMILES: CC(C)NC(=O)N(C(=O)[C@H]1CCC2C3CCC4N(C)C(=O)C=C[C@]4(C)C3CC[C@@]21C)C(C)C (stereo partly drawn)

- pA2 [3]: 7.9
- Ki [4]: 794 nM
- Ki [5]: 200 nM
- Ki [6]: 15.8 nM
SMILES: O=C(CCCN1CCC(NC(=O)c2ccccc2)CC1)c1ccccc1

- IC50 [7]: 41 nM
SMILES: CN1C(=O)CC[C@]2(C)C3CC[C@@]4(C)C(CC[C@@H]4C(=O)N(C(=O)NC4CCCCC4)C4CCCCC4)C3CCC12 (stereo partly drawn)

- IC50 [1]: 7 nM
- IC50 [2]: 47 nM
SMILES: CC(C)N(C(=O)C1=CCC2C3CCC4=CC(C(=O)O)=CC[C@]4(C)C3CC[C@]12C)C(C)C (stereo partly drawn)

SMILES: CC(C)(Cc1c[nH]c2ccc(Cl)cc12)NCCOc1ccccc1OCC1CC1
- pA2 [3]: 7.3
- Ki [4]: 15.8 nM
- Ki [5]: 15.8 nM
- Ki [6]: 0.631 nM

- Ki [8]: 30 nM
- IC50 [1]: 30 nM
- Ki [9]: 70 nM
- IC50 [2]: 70 nM
SMILES: CC(C)N(C(=O)[C@H]1CC[C@H]2[C@@H]3CCC4C=C(C(=O)O)CC[C@]4(C)[C@H]3CC[C@]12C)C(C)C (stereo partly drawn)

- IC50 [10]: 2 nM
- IC50 [11]: 24 nM
SMILES: COc1ccccc1N1CCN(CCCNC(=O)c2cccc3c(=O)c(C)c(-c4ccccc4)oc23)CC1 [UPIDOSIN]
- ED50 (Canis familiaris [12]): 0.004 mg/kg
- ED50 (Canis familiaris [13]): 0.109 mg/kg

SMILES: C=Cc1sc2ccc(Cl)c3c2c1CN(C)CC3
- pA2 [3]: 7.5
- Ki [4]: 3.16 nM
- Ki [5]: 20 nM
